These results are taken from patent US10526327B2, “Histone demethylase inhibitors” (CELGENE QUANTICEL RESEARCH, INC., priority 2013, dated 2020).

Broadly, the IC50 is the concentration that inhibits the measured activity by half. The low end stands for greater potency in that assay, the high end for weaker potency in that assay.

The target of this experiment is T1, Jarid1A (Homo sapiens, UniProt P29375).
T1 construct: purchased BPS Bioscience 50110
T1 sequence (P29375 1-1090): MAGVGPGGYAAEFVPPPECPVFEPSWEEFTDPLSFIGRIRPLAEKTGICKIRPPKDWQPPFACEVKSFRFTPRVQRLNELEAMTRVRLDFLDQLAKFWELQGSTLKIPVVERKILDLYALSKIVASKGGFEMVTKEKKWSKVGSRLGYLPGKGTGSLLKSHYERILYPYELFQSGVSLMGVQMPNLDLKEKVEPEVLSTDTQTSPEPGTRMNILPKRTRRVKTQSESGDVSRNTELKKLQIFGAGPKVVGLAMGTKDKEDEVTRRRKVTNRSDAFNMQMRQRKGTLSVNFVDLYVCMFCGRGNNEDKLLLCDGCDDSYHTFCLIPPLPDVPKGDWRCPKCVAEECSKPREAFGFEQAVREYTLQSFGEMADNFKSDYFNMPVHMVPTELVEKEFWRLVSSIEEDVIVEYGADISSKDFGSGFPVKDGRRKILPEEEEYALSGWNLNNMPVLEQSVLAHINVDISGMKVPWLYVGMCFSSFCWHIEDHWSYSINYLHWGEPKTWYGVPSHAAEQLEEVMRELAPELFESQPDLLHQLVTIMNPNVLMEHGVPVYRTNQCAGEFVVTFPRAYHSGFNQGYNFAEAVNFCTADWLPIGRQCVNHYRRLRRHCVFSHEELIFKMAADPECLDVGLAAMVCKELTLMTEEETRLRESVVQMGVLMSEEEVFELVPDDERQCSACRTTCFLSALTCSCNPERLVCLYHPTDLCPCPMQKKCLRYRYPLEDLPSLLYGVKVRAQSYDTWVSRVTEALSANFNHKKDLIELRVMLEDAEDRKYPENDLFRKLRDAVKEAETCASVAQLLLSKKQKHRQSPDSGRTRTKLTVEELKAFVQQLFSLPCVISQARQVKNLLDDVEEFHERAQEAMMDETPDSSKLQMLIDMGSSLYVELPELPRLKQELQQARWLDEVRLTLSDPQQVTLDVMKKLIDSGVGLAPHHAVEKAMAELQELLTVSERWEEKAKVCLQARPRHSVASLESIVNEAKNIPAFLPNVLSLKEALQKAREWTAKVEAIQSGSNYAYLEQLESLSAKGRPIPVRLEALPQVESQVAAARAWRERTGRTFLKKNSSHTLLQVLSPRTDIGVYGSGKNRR
Nature of the experiment: Jarid1A in vitro enzyme inhibition assay (TR-FRET). Format: biochemical. In a few lines: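 Demethylation of 300 nM biotin-H3K4me3 peptide by 1 nM baculovirus-expressed Jarid1A (aa 1–1090) with 2 μM α-ketoglutarate, Fe(II) and ascorbate, pH 7.3, 30 min at room temperature. Stopped with EDTA; H3K4me1-2 product detected by TR-FRET (Eu anti-H3K4me1-2/streptavidin-APC). IC50 fitted from 665/615 ratio over 11-point dilutions.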
Take `Oc1nc(Oc2cnn(C3CCCN(c4ccc(F)cc4)C3)c2)nc2cnccc12` (stereo in doubt) [Example 169, 2-({1-[(3R)-1-(4-fluorophenyl)piperidin-3-yl]-1H-pyrazol-4-yl}oxy)pyrido[3,4-d]pyrimidin-4-ol]: the concentration for half-maximal inhibition (IC50) was not above 0.1 µM.

In the case of `C[C@H](c1ccccc1)n1cc(Oc2nc(O)c3ccncc3n2)cn1` [Example 117, 2-({1-[(1R)-1-phenylethyl]-1H-pyrazol-4-yl}oxy)pyrido[3,4-d]pyrimidin-4-ol], the concentration for half-maximal inhibition (IC50) was not above 0.1 µM.

With `Oc1nc(OCc2ccccc2Cl)nc2cnccc12` [Example 171, 2-[(2-chlorophenyl)methoxy]pyrido[3,4-d]pyrimidin-4-ol], the IC50 was 1 to 10 µM.

Compound `Oc1nc(Oc2cnn([C@H]3CCN(c4ccccc4)C3)c2)nc2cnccc12` [Example 145, 2-({1-[(3S)-1-phenylpyrrolidin-3-yl]-1H-pyrazol-4-yl}oxy)pyrido[3,4-d]pyrimidin-4-ol] had a concentration for half-maximal inhibition (IC50) not above 0.1 µM.

Turning to `Oc1nc(Oc2cnn(C3CCN(Cc4ccccc4)CC3)c2)nc2cnccc12` [Example 123, 2-{[1-(1-benzylpiperidin-4-yl)-1H-pyrazol-4-yl]oxy}pyrido[3,4-d]pyrimidin-4-ol], the IC50 was not above 0.1 µM.

On to `Oc1nc(OCCc2ccccc2)nc2cnccc12` [Example 18, 2-(2-phenylethoxy)pyrido[3,4-d]pyrimidin-4-ol], for which the IC50 is not above 0.1 µM.

In turn, `Cn1cnc(-c2nccc3c(O)nc(OCc4ccc(C(F)(F)F)cc4)nc23)c1` [Example 111, 8-(1-methyl-1H-imidazol-4-yl)-2-{[4-(trifluoromethyl)phenyl]methoxy}pyrido[3,4-d]pyrimidin-4-ol] displayed a concentration for half-maximal inhibition (IC50) not above 0.1 µM.

For `O=C(C1CCNCC1)N1CC[C@H](n2cc(Oc3nc(O)c4ccncc4n3)cn2)C1` [Example 143, 2-({1-[(3S)-1-(piperidine-4-carbonyl)pyrrolidin-3-yl]-1H-pyrazol-4-yl}oxy)pyrido[3,4-d]pyrimidin-4-ol], the IC50 was not above 0.1 µM.

In turn, `Oc1nc(OCCc2ccc(Cl)c(Cl)c2)nc2cnccc12` [Example 175, 2-[2-(3,4-dichlorophenyl)ethoxy]pyrido[3,4-d]pyrimidin-4-ol] returned an IC50 of 1 to 10 µM.

For the compound `O=C(C1CC1)N1CC[C@@H](n2cc(Oc3nc(O)c4ccncc4n3)cn2)C1` [Example 131, 2-({1-[(3R)-1-cyclopropanecarbonylpyrrolidin-3-yl]-1H-pyrazol-4-yl}oxy)pyrido[3,4-d]pyrimidin-4-ol], the 50% inhibitory concentration (IC50) was not above 0.1 µM.

In the case of `O=S(=O)(C1CC1)N1CC[C@H](n2cc(Oc3nc(O)c4ccncc4n3)cn2)C1` [Example 137, 2-({1-[(3S)-1-(cyclopropanesulfonyl)pyrrolidin-3-yl]-1H-pyrazol-4-yl}oxy)pyrido[3,4-d]pyrimidin-4-ol], the half-maximal inhibitory concentration (IC50) is not above 0.1 µM.

As to `Oc1nc(Oc2cnn([C@@H]3CCCN(Cc4ccccc4)C3)c2)nc2cnccc12` [Example 158, 2-({1-[(3R)-1-benzylpiperidin-3-yl]-1H-pyrazol-4-yl}oxy)pyrido[3,4-d]pyrimidin-4-ol], the IC50 was not above 0.1 µM.

Compound `Cn1cnc(-c2nccc3c(O)nc(OCc4ccc(Cl)cc4)nc23)c1` [Example 112, 2-[(4-chlorophenyl)methoxy]-8-(1-methyl-1H-imidazol-4-yl)pyrido[3,4-d]pyrimidin-4-ol] registered an IC50 of 0.1 to 1 µM.

For the compound `CC(=O)N1CC[C@H](n2cc(Oc3nc(O)c4ccncc4n3)cn2)C1` [Example 139, 1-[(3S)-3-[4-({4-hydroxypyrido[3,4-d]pyrimidin-2-yl}oxy)-1H-pyrazol-1-yl]pyrrolidin-1-yl]ethan-1-one], the IC50 is not above 0.1 µM.

Compound `O=S(=O)(c1ccccc1)N1CC[C@@H](n2cc(Oc3nc(O)c4ccncc4n3)cn2)C1` [Example 128, 2-({1-[(3R)-1-(benzenesulfonyl)pyrrolidin-3-yl]-1H-pyrazol-4-yl}oxy)pyrido[3,4-d]pyrimidin-4-ol] came in with an IC50 not above 0.1 µM.

As to `O=S(=O)(C1CC1)N1CCC[C@H](n2cc(Oc3nc(O)c4ccncc4n3)cn2)C1` [Example 162, 2-({1-[(3S)-1-(cyclopropanesulfonyl)piperidin-3-yl]-1H-pyrazol-4-yl}oxy)pyrido[3,4-d]pyrimidin-4-ol], the half-inhibitory concentration (IC50) is not above 0.1 µM.

For `CC(C)COc1nc(O)c2ccncc2n1` [Example 14, 2-(2-methylpropoxy)pyrido[3,4-d]pyrimidin-4-ol], the IC50 was 0.1 to 1 µM.

On to `CCC(c1ccccc1)n1cc(Oc2nc(O)c3ccncc3n2)cn1` (stereo not shown) [Example 115, 2-{[1-(1-phenylpropyl)-1H-pyrazol-4-yl]oxy}pyrido[3,4-d]pyrimidin-4-ol], for which the IC50 is not above 0.1 µM.

For `Cn1cnc(-c2nccc3c(O)nc(OCc4ccccc4C(F)(F)F)nc23)c1` [Example 107, 8-(1-methyl-1H-imidazol-4-yl)-2-{[2-(trifluoromethyl)phenyl]methoxy}pyrido[3,4-d]pyrimidin-4-ol], the IC50 was 0.1 to 1 µM.
